Assay results reported in patent US20080194641A1, “Pesticidal Mixtures” (BASF Aktiengesellschaft, priority 2005, published 2008).

Legend:
[1] = test system: Colorado potato beetle; experiment: Leaf-dip bioassay on potato leaves, larval mortality; format: in vivo; conditions: Leptinotarsa decemlineata, 120 h
Protocol: (§1) Potato plants for Colorado potato beetle and two-leaf cotton plants for tobacco budworm were utilized for bioassays. Excised plant leaves were dipped into 1:1 acetone/water dilutions of the active compounds. After the leaves had dried, they were individually placed onto water-moistened filter paper on the bottoms of Petri dishes. Each dish was infested with 5-7 larvae and covered with a lid. Each treatment dilution was replicated 4 times. Test dishes were held at approximately 27° C. and 60% humidity. Numbers of live and morbid larvae were assessed in each dish at 5 days after treatment application, and percent mortality was calculated.
(§2) To determine if an insecticidal mixture was synergistic, Limpel's formula was used:
(§3) E=Expected % mortality of the mixture X=% mortality of compound X, as measured independently Y=% mortality of compound Y, as measured independently
(§4) Synergism was evident if the % observed mortality for the mixture was greater than the % expected mortality.

[2] = test system: tobacco budworm; experiment: Leaf-dip bioassay on cotton leaves, larval mortality; format: in vivo; conditions: Heliothis virescens, 120 h, read-out: % Mortality of Tobacco Budworm
Protocol: as §1, §2, §3, §4

[3] = read-out: % Mortality of Colorado Potato Beetle

CCN/C(=N\Nc1c(Cl)cc(C(F)(F)F)cc1Cl)C(C)(C)C [I-1, N-ethyl-2,2-dimethylpropionamide-2-(2,6-dichloro-α,α,α-trifluoro-p-tolyl)-hydrazone] showed a mortality at 100 ppm ([1]; dose rate 100 ppm, 5 days after treatment) of 0%, a mortality at 300 ppm ([1]; dose rate 300 ppm, 5 days after treatment) of 20.8% and a mortality at 100 ppm [2] of 0%. The mortality at 300 ppm [2] was 16%.
With CC1(C)C(C=C(Cl)Cl)C1C(=O)OC(C#N)c1cccc(Oc2ccccc2)c1 (stereo not drawn) [alpha-cypermethrin, reference compound] the mortality at 0.03 ppm [1, 3] was 0%, the mortality at 0.06 ppm [1, 3] was 4.2% and the mortality at 0.03 ppm [2] was 0%. For the same compound, the mortality at 0.06 ppm [2] was 8.9%.
CCN/C(=N\Nc1c(Cl)cc(C(F)(F)F)cc1Cl)C1(C)CC1(Cl)Cl (stereo not drawn) [I-2, N-Ethyl-2,2-dichloro-1-methylcyclopropane-carboxamide-2-(2,6-dichloro-α,α,α-tri-fluoro-p-tolyl)hydrazone] was tested, and the mortality at 30 ppm ([1]; dose rate 30 ppm, 5 days after treatment) was 6.3%, the mortality at 60 ppm ([1]; dose rate 60 ppm, 5 days after treatment) was 39.6% and the mortality at 60 ppm [2] was 5.4%. For the same compound, the mortality at 100 ppm [2] was 12.5%.
With O=[N+]([O-])NC1=NCCN1Cc1ccc(Cl)nc1 [imidacloprid, reference compound] the mortality at 0.06 ppm [1, 3] was 0%.
